# How the values were obtained:
# blood pressure = assay: Tests for action on the cardiovascular system: hypotensive activity (activity in method 1, rats or cats, or method 2), reported in words; assay type: in vivo, rat, cat; details: standard test procedure, result in words
# Experimental: Tests for action on the cardiovascular system were conducted according to one of the following procedures:
# Cats were anaesthetised with pentobarbitone sodium (30 mg/kg) and the cephalic vein, femoral and carotid arteries and trachea were cannulated. The carotid cannula was introduced into the left ventricle and the femoral cannula into the aorta. Blood pressure and heart rate were recorded from the aortic cannula and left ventricular pressure from the carotid cannula. The test compunds were administered intravenously (0.1-25.6 mg/kg).
# Method 2 (hypertensive rats)
# Male or female rats are rendered hypertensive by applying a figure of 8 ligature around one kidney and contralateral nephrectomy. Blood pressure stabilises at a hypertensive level after 6 weeks. Systolic pressure is measured indirectly using a Decker Caudal Plethysmograph A control group of rats is run with each group treated with drug. Each group usually consists of six rats. Drugs are usually administered by the IP or oral routes. Pressures are read prior to drug administration and at two and 24 hours thereafter.
# [1] = system: blood pressure and heart rate; assay: Method 1 (rat): hypotensive activity in anaesthetised rats, i.v.; details: Rattus norvegicus, iv, 0.25 h, read-out: Hypotensive Activity
# Experimental: Rats were anaesthetised with pentobarbitone sodium (60 mg/kg) and the jugular vein, trachea and carotid artery were cannulated. […] A decrease in heart rate of more than 30% from control values was considered to be significant bradycardia.
# α-adrenoceptor = assay: α-Adrenoceptor antagonism on the guinea pig aortic strip; details: Table 4
# Excerpt: Carried out on the guinea pig aortic strip [Furchgott and Bhadrakom (1953) J. Pharmac. exp. Ther. 108, 129-143] by the method of Alps et al [Br. J. Pharmac. 1972 44, 52-62].
Compound,hypotensive activity (blood pressure),minimal effective dose [1] [mg/kg],α-blockade pA2 (α-adrenoceptor)
"O=C(NC1CCN(CCCC(O)c2ccccc2)CC1)c1ccccc1 (single isomer, unassigned; (+)) [Example 86, (+)-4-Benzamido-1-(4-phenyl-4-hydroxybutyl)piperidine]",hypotensive activity,1.6 to 3.2,
"O=C(NC1CCN(CCC2CCCCC2)CC1)c1ccccc1 [Example 1, 1-[2-(Cyclohexyl)ethyl]-4-benzamidopiperidine]",good hypotensive activity,1.6 to 3.2,
"COc1ccc(CCN2CCC(NC(=O)c3ccccc3)CC2)cc1OC [Example 5, 1-[2-(3,4-Dimethoxyphenyl)ethyl]-4-benzamidopiperidine]",,< 30,
"COc1ccc(CCN2CCC(NC(=O)c3ccccc3Cl)CC2)cc1OC [Example 6, 1-[2-(3,4-Dimethoxyphenyl)ethyl]-4-(2-chlorobenzamido)-piperidine]",hypotensive activity,25.6,
"COc1cc(CCN2CCC(NC(=O)c3ccccc3)CC2)cc(OC)c1OC [Example 8, 1-[2-(3,4,5-Trimethoxyphenyl)ethyl]-4-benzamidopiperidine]",,6.4 to 12.8,
"O=C(CN1CCC(NC(=O)c2ccccc2)CC1)c1ccc(O)c(O)c1 [Example 11, 1-[2-(3,4-Dihydroxyphenyl)-2-oxoethyl]-4-benzamidopiperidine]",marked hypotensive activity,1.6 to 3.2,
"O=C(NC1=CCN(CCc2ccccc2)CC1)c1ccccc1 [Example 26, 1-Phenethyl-4-benzamido-1,2,5,6-tetrahydropyridine]",hypotensive activity,,
"O=C(NC1CCN(Cc2ccccc2)CC1)c1ccccc1 [Example 30, 1-Benzyl-4-benzamidopiperidine]",,25.6,
"Cc1ccc(C(=O)NC2CCN(Cc3ccccc3)CC2)cc1 [Example 32, 1-Benzyl-4-(p-methylbenzamido)piperidine]",,< 30,
"O=C(NC1CCN(CCc2ccccc2[N+](=O)[O-])CC1)c1ccccc1 [Example 33, 1-[2-(o-Nitrophenyl)ethyl]-4-benzamido-piperidine]",hypotensive activity,6.4 to 12.8,
"Cc1ccc(CCN2CCC(NC(=O)c3ccccc3)CC2)cc1C [Example 41, 1-[2-(3,4-Dimethylphenyl)ethyl]-4-benzamidopiperidine]",hypotensive activity,6.4 to 12.8,
"COc1ccc(CCN2CCC(NC(=O)c3ccccc3)CC2)cc1 [Example 49, 4-Benzamido-1-[2-(p-methoxyphenyl)ethyl]piperidine]",hypotensive activity,6.4 to 12.8,
"O=C(CCCN1CCC(NC(=O)c2ccccc2)CC1)Nc1ccccc1 [Example 50, N-Phenyl-4-(p-benzamidopiperid-1-yl)butyramide]",hypotensive activity,6.4 to 12.8,
"O=C(NC1CCN(CCOc2ccccc2)CC1)c1ccccc1 [Example 52, 1-(2-Phenoxyethyl)-4-benzamidopiperidine]",marked hypotensive activity,6.4 to 12.8,5.9
"O=C(NC1CCN(CCCC(O)c2ccccc2)CC1)c1ccccc1 (stereo not shown) [Example 53, 4-Benzamido-1-(4-phenyl-4-hydroxybutyl)piperidine]",hypotensive activity,6.4 to 12.8,
"O=C(NC1CCN(CCCOc2cccc3ccccc23)CC1)c1ccccc1 [Example 55, 1-[3-(1-Naphthyloxy)-propyl]-4-benzamidopiperidine]",marked hypotensive activity,1.6 to 3.2,
"O=C(CN1CCC(NC(=O)c2ccccc2)CC1)c1ccc2c(c1)CCCC2 [Example 56, 1-[2-(1,2,3,4-Tetrahydro-6-napthyl)-2-oxoethyl]-4-benzamidopiperidine]",hypotensive activity,6.4 to 12.8,
"O=C(NC1CCN(CC(O)c2ccc3c(c2)CCCC3)CC1)c1ccccc1 (stereo not shown) [Example 57, 1-[2-(1,2,3,4-Tetrahydro-6-naphthyl)-2-hydroxyethyl]-4-benzamido-piperidine]",hypotensive activity,1.6 to 3.2,
"Cl.O=C(NC1CCN(CCc2ccccc2)CC1)c1ccccc1 [Example 59, 1-Phenethyl-4-benzamidopiperidine hydrochloride]",hypotensive activity,,
"CC(C(=O)c1ccc(O)cc1)N1CCC(NC(=O)c2ccccc2)CC1 (stereo not shown) [Example 64, 1-[1-Methyl-2-(4-hydroxy)phenyl-2-oxoethyl]-4-benzamidopiperidine]",,< 30,

Compound,hypotensive activity (blood pressure),minimal effective dose [1] [mg/kg],α-blockade pA2 (α-adrenoceptor)
"CC(C(O)c1ccc(O)cc1)N1CCC(NC(=O)c2ccccc2)CC1 (stereo not shown) [Example 65, 1-[1-Methyl-2-(4-hydroxy)phenyl-2-hydroxyethyl]-4-benzamidopiperidine]",hypotensive activity,25.6,
"Cc1cc2c(cc1C(=O)CN1CCC(NC(=O)c3ccccc3)CC1)C(C)(C)CC(C)C2(C)C (stereo not shown) [Example 66, 7-(4-Benzamidopiperidinoacetyl)-1,1,3,4,4,6-hexamethyl-1,2,3,4-tetrahydronaphthalene]",hypotensive activity,6.4 to 12.8,
"Cc1cc2c(cc1C(O)CN1CCC(NC(=O)c3ccccc3)CC1)C(C)(C)CC(C)C2(C)C (stereo not shown) [Example 67, 7-[2-(4-Benzamidopiperid-1-yl)-1-hydroxyethyl]-1,1,3,4,4,6-Hexamethyl-1,2,3,4-tetrahydronaphthalene]",hypotensive activity,,
"COc1ccccc1OCCN1CCC(NC(=O)c2ccccc2)CC1 [Example 68, 1-[2-(2-Methoxyphenoxy)ethyl]-4-benzamidopiperidine]",hypotensive activity,6.4 to 12.8,
"O=C(CCCN1CCC(NC(=O)c2ccccc2)CC1)c1ccc(Br)cc1 [Example 71, 4-Benzamido-1-[4-(4-bromophenyl)-4-oxobutyl]piperidine]",,25.6,
"NC1CCN(CCCC(=O)c2ccccc2)CC1 [Example 72, 4-Amino-1-(4-phenyl-4-oxobutyl)piperidine]",,,6.9
"O=C(CCCN1CCC(NC(=O)c2ccc(Cl)cc2)CC1)c1ccccc1 [Example 76, 4-(4-Chlorobenzamido)-1-(4-phenyl-4-oxobutyl)piperidine]",hypotensive activity,6.4 to 12.8,
"COc1ccc(C(=O)CCCN2CCC(NC(=O)c3ccccc3)CC2)cc1 [Example 77, 4-Benzamido-1-[4-(4-methoxyphenyl)-4-oxobutyl]piperidine]",,6.4 to 12.8,
"CC(Cc1ccccc1)N1CCC(NC(=O)c2ccccc2)CC1 (stereo not shown) [Example 78, 4-Benzamido-1-(1-phenylprop-2-yl)piperidine]",marked hypotensive activity,6.4 to 12.8,
"O=C(CCCN1CCC(NC(=O)c2ccccc2)CC1)c1ccc2ccccc2c1 [Example 80, 1-[4-(2-Naphthyl)-4-oxobutyl]-4-benzamidopiperidine]",hypotensive activity,1.6 to 3.2,
"C[N+]1(CCCC(=O)c2ccccc2)CCC(NC(=O)c2ccccc2)CC1 (stereo not shown) [Example 82, 4-Benzamido-1-methyl-1-(4-phenyl-4-oxobutyl)piperidinium iodide]",hypotensive activity,,
"O=C(NC1CCN(CCCC(O)c2ccc3ccccc3c2)CC1)c1ccccc1 (stereo not shown) [Example 83, 1-[4-(2'-Naphthyl)-4-hydroxybutyl]-4-benzamidpiperidine]",hypotensive activity,1.6 to 3.2,
O=C(NC1CCN(CCc2ccc3ccccc3c2)CC1)C1CCCCC1 [Example 84],hypotensive activity,6.4 to 12.8,
"O=C(NC1CCN(CCC=C(c2ccc(F)cc2)c2ccc(F)cc2)CC1)c1ccccc1 [Example 87, 4-(4-Benzamidopiperid-1-yl)-1,1-(di-p-fluorophenyl)but-l-ene]",hypotensive activity,25.6,
"O=C(NC1CCN(CCC=C(c2ccccc2)c2ccccc2)CC1)c1ccccc1 [Example 89, 4-(4-Benzamidopiperid-1-yl)-1,1-diphenylbut-l-ene]",hypotensive activity,6.4 to 12.8,
"O=C(NC1CCN(CCCC(c2ccccc2)c2ccccc2)CC1)c1ccccc1 [Example 90, 4-(4-Benzamidopiperid-1-yl)-1,1-diphenyl butane]",hypotensive activity,6.4 to 12.8,
"O=C(CCN1CCC(NC(=O)c2ccccc2)CC1)c1ccc2c(c1)OCCO2 [Example 91, 1-[3-(1,4-Benzodioxan-6-yl)-3-oxopropyl]-4-benzamidopiperidine]",hypotensive activity,25.6,
"O=C(NC1CCN(CCc2ccc3ccccc3n2)CC1)c1ccccc1 [Example 95, 1-[2-(2-Quinolyl)ethyl]-4-benzamidopiperidine]",marked hypotensive activity,,
"O=C(NC1CCN(CC(O)c2ccc[nH]2)CC1)c1ccccc1 (stereo not shown) [Example 98, 1-[2-Hydroxy-2-(2-pyrrol-2-yl)ethyl]-4-benzamidopiperidine]",hypotensive activity,,
"Cc1cc(CN2CCC(NC(=O)c3ccccc3)CC2)c(C)n1-c1ccccc1 [Example 99, 1-(2,5-Dimethyl-1-phenylpyrrol-3-yl-methyl)-4-benzamidopiperidine]",hypotensive activity,< 30,

# From US4029801A, “Pharmaceutical compositions and methods of treating hypertension” (priority 1970, dated 1977)
